Reference: US20240108641A1, “COMPOSITIONS FOR ORAL ADMINISTRATION OF ZOLEDRONIC ACID OR RELATED COMPOUNDS FOR TREATING DISEASE” (ANTECIP BIOVENTURES II LLC, priority 2012, published 2024)

Key:
[1] = tested on: complex regional pain syndrome (CRPS); test: rat tibia fracture model of CRPS, dosing starting four weeks after fracture; type: in vivo
Procedure: A study was performed to evaluate the efficacy of bisphosphonates such as oral zoledronic acid in inhibiting immune responses and pain behavior in a rat fracture model of CRPS.
The effect of orally administered zoledronic acid was examined in the rat tibia fracture model of complex regional pain syndrome (CRPS). CRPS was induced in the rats by fracturing the right distal tibias of the animals and casting the fractured hindpaws for 4 weeks, as described in Guo T Z et al. (Pain. 2004; 108: 95-107).
Starting four weeks after fracture and casting, animals were orally administered either vehicle (control) or zoledronic acid, a dose of 21 mg/kg on the first day and 3 mg/kg/day daily thereafter, or distilled water for 3 weeks (weeks 4-7 post-fracture). Drug was dissolved in distilled water and administered by gavage. Animals were fasted for 4 hours before and 2 hours after dosing. At the end of the 21-day period, casts were removed, and on the following day, the rats were tested for hindpaw pain, edema, and warmth.

in vivo = conditions: beagle, dog, po, 150 mg
Procedure: Tablets were manufactured containing either pure zoledronic acid or the disodium salt of zoledronic acid (disodium zoledronate tetrahydrate). Both types of tablets contained 50 mg of zoledronic acid equivalent per tablet. Identical excipients were used in both types of tablets, with amounts adjusted to account for the difference in molecular weights between the acid and the disodium salt.
Beagle dogs were orally administered tablets containing 150 mg zoledronic acid equivalent either in the form of disodium zoledronate (Group 1) or pure zoledronic acid (Group 2). Each animal was given three 50 mg equivalent tablets (150 mg total), which were administered together. The animal's oral cavity was wetted with water before placing the tablets on the back of the animal's tongue. Animals were fasted before and after dosing. Animals were 6 to 9 months of age and weighed 6 to 10 kg on the day of dosing. There were three dogs per group.
Serial blood samples were collected from each animal by venipuncture of the jugular vein at various points after dosing for measurement of plasma concentrations of zoledronic acid. Blood samples were collected into chilled tubes containing K2EDTA as the anticoagulant. Samples were then centrifuged at approximately 3000 rpm at +4° C. for 10 minutes for plasma derivation. Plasma concentrations of zoledronic acid were measured using an LC/MS/MS method.

[2] = tested on: inflammatory pain (mechanical hyperalgesia); type: in vivo, Sprague-Dawley rats
Procedure: The effect of orally administered zoledronic acid on inflammatory pain was examined using the rat complete Freund's adjuvant (CFA) model. Inflammatory pain was induced by injection of 100% CFA in a 75 μL volume into the left hind paws of Sprague-Dawley® rats on day 0, followed by assessments on days 1-3. Animals were orally administered vehicle (control), zoledronic acid 18 mg/m^2 (or 3 mg/kg), zoledronic acid 120 mg/m^2 (or 20 mg/kg), or zoledronic acid 900 mg/m^2 (or 150 mg/kg) daily on days 1-3. Drug was dissolved in distilled water and prepared fresh daily. Animals were fasted prior to dosing. Under current FDA guidelines for extrapolating starting dosages from animals to humans, dosages expressed in mg/m^2 are considered equivalent between mammalian species. Thus, for example, 18 mg/m^2 in a rat is considered equivalent to 18 mg/m^2 in a human being, while 3 mg/kg in a rat may not be equivalent to 3 mg/kg in a human being.
Values for inflammatory pain (mechanical hyperalgesia) in the vehicle and drug-treated animals were obtained on day 0 prior to CFA injection, and at baseline and post-treatment on days 1-3. Pain was assessed using a digital Randall-Selitto device (dRS; IITC Life Sciences, Woodland Hills, CA). Animals were placed in a restraint sling that suspended the animal, leaving the hind limbs available for testing. Paw compression threshold was measured by applying increasing pressure to the plantar surface of the hind paw with a dome-shaped tip placed between the 3rd and 4th metatarsus. Pressure was applied gradually over approximately 10 seconds. Measurements were taken from the first observed nocifensive behavior of vocalization, struggle or withdrawal. A cut-off value of 300 g was used to prevent injury to the animal.
Reversal of inflammatory pain was calculated according to the formula:
% reversal=(Post-treatment−Post-CFA baseline)/(Pre-CFA baseline−Post-CFA baseline)×100.
The experiment was carried out using 9-10 animals per group.

[3] = tested on: arthritis pain (mechanical hyperalgesia); test: rat complete Freund's adjuvant (CFA) model of arthritis pain; type: in vivo; conditions: oral administration; day 14 post CFA
Procedure: The effect of orally administered zoledronic acid on arthritis pain was examined in the rat complete Freund's adjuvant (CFA) model of arthritis pain. In this model, injection of 100% complete Freund's adjuvant (CFA) in a 75 μL volume into the left hind paws is followed by a 10-14 day period to allow for the development of arthritis pain. Animals were orally administered vehicle (control), zoledronic acid 54 mg/m^2 (or 9 mg/kg), or zoledronic acid 360 mg/m^2 (or 60 mg/kg), divided in three equal daily doses on the first three days post CFA injection. Drug was dissolved in distilled water and prepared fresh daily. Animals were fasted prior to dosing.
Arthritis pain (mechanical hyperalgesia) in the vehicle and drug-treated animals was evaluated on day 14 post CFA injection using a digital Randall-Selitto device (dRS; IITC Life Sciences, Woodland Hills, CA). Animals were placed in a restraint sling that suspended the animal, leaving the hind limbs available for testing. Paw compression threshold was measured by applying increasing pressure to the plantar surface of the hind paw with a dome-shaped tip placed between the 3rd and 4th metatarsus. Pressure was applied gradually over approximately 10 seconds. […]
Reversal of arthritis pain in the ipsilateral (CFA-injected) paw was calculated according to the formula: […]

[4] = oral 21 mg/kg first day then 3 mg/kg/day, weeks 4-7 post-fracture

O=P(O)(O)C(O)(Cn1ccnc1)P(=O)(O)O [zoledronic acid]
hindlimb weight bearing [1, 4]: over 90 % of normal | overall effect compared to vehicle treated animals [1, 4]: reversed pain and restored weight bearing | von Frey pain thresholds for the right (fracture) hindpaw, change as compared to baseline [1, 4]: over 100% | pain relief, dosing four weeks after fracture versus dosing at the time of injury ([1]; oral, FIG. 18): significantly greater improvement of pain relief | AUC(0-inf) (in vivo): 2220 ng·h/mL | paw compression thresholds compared to vehicle ([2]; 120 mg/m^2 (20 mg/kg) oral daily, all time points): approximately equal or inferior to vehicle | toxicity ([2]; 900 mg/m^2 oral daily days 1-3, euthanization of all animals two days after cessation of dosing): significant toxicity | inflammatory pain thresholds compared to vehicle ([2]; oral administration): significantly improved | arthritis pain thresholds compared to vehicle [3]: significantly improved
